In patent US9102673B2, “Substituted pyrrolo[3,2-c]pyridines as TrkA kinase inhibitors” (Merck Sharp & Dohme Corp., priority 2011, dated 2015):

Target: T1, TrkA (Homo sapiens, UniProt P04629)
T1 construct: purchased Cell Signaling
Test: TrkA kinase activity: phosphorylation of a fluorescently labeled peptide substrate (Caliper EZReader II)
Type: biochemical
Details: [E]=0.37 nM, [S]=1 μM, [ATP]=2 mM, room temperature, 3 hours; read-out: Trk A EC50
Experimental: TrkA kinase activity was measured as the ability of the enzyme to phosphorylate a fluorescently labeled peptide substrate. Buffer salts, reagents, and fluorescently labeled peptides were purchased from Carna Biosciences and were of the highest quality available (QSS Assist TRICA_MSA Kit). Enzyme was purchased from Cell Signaling, and was used without further purification. 384-well round bottom assay plates were prepared by the addition of […] of a DMSO solution of compound at various concentrations to final inhibitor concentrations ranging from 100 μM to 0.2 μM. Next, assay buffer (10 μl) containing substrate and ATP were added, followed by addition of 10 μl of enzyme in assay buffer. Final assays concentrations were: [E]=0.37 nM, [S]=1 μM, [ATP]=2 mM. The reactions were incubated at room temperature for 3 hours resulting in approximately 15% substrate phosphorylation and were terminated by the addition of 5 μl of stop buffer. Substrates and products were separated on the Caliper EZReader II (Caliper LifeSciences, Inc.) using standard separation protocols. The percent inhibition was calculated for each compound concentration and the IC50 was determined using equation 1.

T1 sequence (P04629 33-796): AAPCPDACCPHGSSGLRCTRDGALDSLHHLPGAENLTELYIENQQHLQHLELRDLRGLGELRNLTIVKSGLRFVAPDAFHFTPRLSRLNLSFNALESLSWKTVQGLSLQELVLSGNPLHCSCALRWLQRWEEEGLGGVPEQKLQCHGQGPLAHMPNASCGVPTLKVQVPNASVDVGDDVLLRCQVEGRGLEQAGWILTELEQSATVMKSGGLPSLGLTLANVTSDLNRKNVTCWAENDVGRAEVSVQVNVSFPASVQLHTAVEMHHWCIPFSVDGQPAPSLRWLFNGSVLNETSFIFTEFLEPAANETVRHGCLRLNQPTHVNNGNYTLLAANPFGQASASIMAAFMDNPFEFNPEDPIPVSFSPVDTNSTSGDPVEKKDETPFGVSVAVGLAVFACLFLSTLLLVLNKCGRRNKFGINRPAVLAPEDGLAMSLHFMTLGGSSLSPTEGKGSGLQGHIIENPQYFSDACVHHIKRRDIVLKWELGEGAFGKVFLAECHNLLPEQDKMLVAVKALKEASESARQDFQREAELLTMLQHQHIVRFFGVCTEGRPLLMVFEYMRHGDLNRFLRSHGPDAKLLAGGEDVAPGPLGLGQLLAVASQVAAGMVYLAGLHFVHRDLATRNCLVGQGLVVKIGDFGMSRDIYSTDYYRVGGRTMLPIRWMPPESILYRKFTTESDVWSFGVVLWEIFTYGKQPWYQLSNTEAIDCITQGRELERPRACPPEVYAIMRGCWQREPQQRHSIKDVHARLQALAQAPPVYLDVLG

SMILES | EC50
O=C(O)c1cc2c(-c3cccc4ncccc34)nccc2n1Cc1noc(-c2ccccc2)n1 [Example 16, 1-[(5-phenyl-1,2,4-oxadiazol-3-yl)methyl]-4-(quinolin-5-yl)-1H-pyrrolo[3,2-c]pyridine-2-carboxylic acid] | 5360 nM
CCOc1cccc(-c2nccc3c2cc(C(=O)O)n3CCOc2ccc(C(F)(F)F)nc2)c1 [Example 38, 4-(3-Ethoxyphenyl)-1-(2-{[6-(trifluoromethyl)Pyridin-3-yl]oxy}ethyl)-1H-pyrrolo[3,2-c]pyridine-2-carboxylic acid] | 3920 nM
CCCNc1ncc(-c2nccc3c2cc(C(=O)O)n3CCOc2ccc(OC(F)(F)F)cc2)s1 [Example 57, 4-[2-(propylamino)-1,3-thiazol-5-yl]-1-{2-[4-(trifluoromethoxy)phenoxy]ethyl}-1H-pyrrolo[3,2-c]pyridine-2-carboxylic acid] | 162 nM
CCCNc1nccc(-c2nccc3c2cc(C(=O)O)n3CCOc2ccc(OC(F)(F)F)cc2)n1 [Example 58, 4-[2-(propylamino)pyrimidin-4-yl]-1-{2-[4-(trifluoromethoxy)phenoxy]ethyl}-1H-pyrrolo[3,2-c]pyridine-2-carboxylic acid] | 30700 nM
CCOc1cccc(-c2nccc3c2cc(C(=O)O)n3CCOc2ccc(Oc3nccs3)cc2)c1 [Example 73, 4-(3-ethoxyphenyl)-1-{2-[4-(1,3-thiazol-2-yloxy)phenoxy]ethyl}-1H-pyrrolo[3,2-c]pyridine-2-carboxylic acid] | 776 nM
O=C(O)c1cc2cc(-c3cn[nH]c3)ccc2n1CCOc1ccc(OC(F)(F)F)cc1 [Example 76, 5-(1H-pyrazol-4-yl)-1-{2-[4-(trifluoromethoxy)phenoxy]ethyl}-1H-indole-2-carboxylic acid] | 28.5 nM
O=C(O)c1cc2cc(-c3cncnc3)ccc2n1CCOc1ccc(OC(F)(F)F)cc1 [Example 78, 5-pyrimidin-5-yl-1-{2-[4-(trifluoromethoxy)phenoxy]ethyl}-1H-indole-2-carboxylic acid] | 38.7 nM
O=C(O)c1cc2cc(-c3cccnc3)ccc2n1CCOc1ccc(OC(F)(F)F)cc1 [Example 81, 5-pyridin-3-yl-1-{2-[4-(trifluoromethoxy)phenoxy]ethyl}-1H-indole-2-carboxylic acid] | 469 nM
CCOc1cccc(-c2nccc3c(CCOc4ccc(OC(F)(F)F)cc4)c(C(=O)O)[nH]c23)c1 [Example 91, 7-(3-ethoxyphenyl)-3-{2-[4-(trifluoromethoxy)phenoxy]ethyl}-1H-pyrrolo[2,3-d]pyridine-2-carboxylic acid] | 34.9 nM
CCOc1cccc(-c2nccn3c(CCOc4ccc(OC(F)(F)F)cc4)c(C(=O)O)nc23)c1 [Example 92, 8-(3-ethoxyphenyl)-3-{2-[4-(trifluoromethoxy)phenoxy]ethyl}imidazo[1,2-a]pyrazine-2-carboxylic acid] | 1210 nM
